Measurements from patent publication US20070049564A1 (Wyeth, priority 2005, published 2007).
Where two headings read alike, the source gives them in different places.

Key:
[1] = tested on: S. typhimurium GC 2172; test: MIC, broth microdilution; details: Salmonella enterica, TYPHIMURIUM
[2] = tested on: c. albicans GC 3066; test: MIC, broth microdilution
[3] = tested on: E. faecium GC 2243; test: MIC, broth microdilution; details: Enterococcus faecium
[4] = tested on: S. agalactiae GC 4564; test: MIC, broth microdilution; details: Streptococcus agalactiae
[5] = tested on: E. coli GC 2233; test: MIC, broth microdilution; details: Escherichia coli
[6] = tested on: E. coli GC 1073; test: MIC, broth microdilution; details: Escherichia coli
[7] = tested on: S. pyogenes GC 4563; test: MIC, broth microdilution; details: Streptococcus pyogenes
[8] = tested on: S. aureus GC 6469; test: MIC, broth microdilution; details: Staphylococcus aureus
[9] = tested on: S. aureus GC 1079; test: MIC, broth microdilution; details: Staphylococcus aureus
[10] = tested on: Staph.; test: Range of MIC for Staph. strains, including MRSA; details: Staphylococcus aureus
[11] = tested on: E. coli GC 2235; test: MIC, broth microdilution; details: Escherichia coli
[12] = tested on: E. coli GC 3226; test: MIC, broth microdilution; details: Escherichia coli
[13] = tested on: E. coli GC 2270; test: MIC, broth microdilution; details: Escherichia coli
[14] = tested on: E. faecium GC 4556; test: MIC, broth microdilution; details: Enterococcus faecium
[15] = tested on: S. aureus GC 6335; test: MIC, broth microdilution; details: Staphylococcus aureus
[16] = tested on: E. faecalis GC 2265; test: MIC, broth microdilution; details: Enterococcus faecalis
[17] = tested on: E. coli GC 2236; test: MIC, broth microdilution; details: Escherichia coli
[18] = tested on: E. faecalis GC 4555; test: MIC, broth microdilution; details: Enterococcus faecalis
[19] = tested on: E. coli GC 2271; test: MIC, broth microdilution; details: Escherichia coli
[20] = tested on: E. coli; test: Range of MIC for E. coli strains; details: Escherichia coli

CN(C)c1cc(NC(=O)CN(C(=O)OCOC(=O)c2ccc(F)cc2)C(C)(C)C)c(O)c2c1C[C@H]1C[C@H]3[C@H](N(C)C)C(O)=C(C(N)=O)C(=O)[C@@]3(O)C(O)=C1C2=O [Example 52, ({[(2-{[(5aR,6aS,7S,10aS)-9-(aminocarbonyl)-4,7-bis(dimethylamino)-1,8,10a,11-tetrahydroxy-10,12-dioxo-5,5a,6,6a,7,10,10a,12-octahydrotetracen-2-yl]amino}-2-oxoethyl)(tert-butyl)amino]carbonyl}oxy)methyl 4-fluorobenzoate]
0.5 to 1 mg/L: MIC ([10]; MRSA, read-out: Range of MIC, Staph (Mouse Serum)) | MIC ([20]; 20 h, read-out: Range of MIC, E. coli (Mouse Serum))
4 to 16 mg/L: MIC ([20]; read-out: Minimum inhibitory concentration (MIC), E. coli (Human Serum)) | MIC ([20]; read-out: Minimum inhibitory concentration (MIC), E. coli (water)) | MIC ([20]; read-out: Range of MIC, E. coli (Water))
2 mg/L: MIC ([8]; GC6469, read-out: MINIMAL INHIBITORY CONCENTRATION MIC, Human Serum) | MIC ([9]; GC1079, read-out: MINIMAL INHIBITORY CONCENTRATION MIC, Water) | MIC ([14]; GC4556, read-out: MINIMAL INHIBITORY CONCENTRATION MIC, Human Serum) | MIC ([15]; GC6335, read-out: MINIMAL INHIBITORY CONCENTRATION MIC, Human Serum) | MIC ([18]; GC4555, read-out: MINIMAL INHIBITORY CONCENTRATION MIC, Human Serum)
> 64 mg/L: MIC ([2]; Candida albicans, GC3066, read-out: MINIMAL INHIBITORY CONCENTRATION MIC)
64 mg/L: MIC ([1]; read-out: MINIMAL INHIBITORY CONCENTRATION MIC, Human Serum) | MIC ([1]; read-out: MINIMAL INHIBITORY CONCENTRATION MIC, Water)
2 to 4 mg/L: MIC ([10]; MRSA, read-out: Range of MIC, Staph (Water)) | MIC ([10]; read-out: Minimum inhibitory concentration (MIC), Staph (Water))
4 mg/L: MIC ([1]; read-out: MINIMAL INHIBITORY CONCENTRATION MIC, Mouse Serum) | MIC ([6]; GC1073, read-out: MINIMAL INHIBITORY CONCENTRATION MIC, Water) | MIC ([8]; GC6469, read-out: MINIMAL INHIBITORY CONCENTRATION MIC, Water) | MIC ([11]; GC2235, read-out: MINIMAL INHIBITORY CONCENTRATION MIC, Human Serum) | MIC ([11]; GC2235, read-out: MINIMAL INHIBITORY CONCENTRATION MIC, Water) | MIC ([13]; GC2270, read-out: MINIMAL INHIBITORY CONCENTRATION MIC, Human Serum) | MIC ([13]; GC2270, read-out: MINIMAL INHIBITORY CONCENTRATION MIC, Water) | MIC ([14]; GC4556, read-out: MINIMAL INHIBITORY CONCENTRATION MIC, Water) | MIC ([15]; GC6335, read-out: MINIMAL INHIBITORY CONCENTRATION MIC, Water) | MIC ([16]; GC2265, read-out: MINIMAL INHIBITORY CONCENTRATION MIC, Human Serum) | MIC ([16]; GC2265, read-out: MINIMAL INHIBITORY CONCENTRATION MIC, Water) | MIC ([18]; GC4555, read-out: MINIMAL INHIBITORY CONCENTRATION MIC, Water) | MIC ([19]; GC2271, read-out: MINIMAL INHIBITORY CONCENTRATION MIC, Human Serum) | MIC ([19]; GC2271, read-out: MINIMAL INHIBITORY CONCENTRATION MIC, Water)
>64 UG/ML: MINIMAL INHIBITORY CONCENTRATION MIC ([2]; Human Serum) | MINIMAL INHIBITORY CONCENTRATION MIC ([2]; Mouse Serum)
0.5 to 4 mg/L: MIC ([10]; read-out: Minimum inhibitory concentration (MIC), Staph (Human Serum))
0.12 mg/L: MIC ([4]; GC4564, read-out: MINIMAL INHIBITORY CONCENTRATION MIC, Mouse Serum) | MIC ([7]; GC4563, read-out: MINIMAL INHIBITORY CONCENTRATION MIC, Mouse Serum)
16 mg/L: MIC ([12]; GC3226, read-out: MINIMAL INHIBITORY CONCENTRATION MIC, Human Serum) | MIC ([12]; GC3226, read-out: MINIMAL INHIBITORY CONCENTRATION MIC, Water)
8 mg/L: MIC ([5]; GC2233, read-out: MINIMAL INHIBITORY CONCENTRATION MIC, Human Serum) | MIC ([5]; GC2233, read-out: MINIMAL INHIBITORY CONCENTRATION MIC, Water) | MIC ([6]; GC1073, read-out: MINIMAL INHIBITORY CONCENTRATION MIC, Human Serum) | MIC ([17]; GC2236, read-out: MINIMAL INHIBITORY CONCENTRATION MIC, Human Serum) | MIC ([17]; GC2236, read-out: MINIMAL INHIBITORY CONCENTRATION MIC, Water)
0.5 mg/L: MIC ([4]; GC4564, read-out: MINIMAL INHIBITORY CONCENTRATION MIC, Human Serum) | MIC ([4]; GC4564, read-out: MINIMAL INHIBITORY CONCENTRATION MIC, Water) | MIC ([5]; GC2233, read-out: MINIMAL INHIBITORY CONCENTRATION MIC, Mouse Serum) | MIC ([8]; GC6469, read-out: MINIMAL INHIBITORY CONCENTRATION MIC, Mouse Serum) | MIC ([9]; GC1079, read-out: MINIMAL INHIBITORY CONCENTRATION MIC, Mouse Serum) | MIC ([11]; GC2235, read-out: MINIMAL INHIBITORY CONCENTRATION MIC, Mouse Serum) | MIC ([13]; GC2270, read-out: MINIMAL INHIBITORY CONCENTRATION MIC, Mouse Serum) | MIC ([14]; GC4556, read-out: MINIMAL INHIBITORY CONCENTRATION MIC, Mouse Serum) | MIC ([18]; GC4555, read-out: MINIMAL INHIBITORY CONCENTRATION MIC, Mouse Serum) | MIC ([19]; GC2271, read-out: MINIMAL INHIBITORY CONCENTRATION MIC, Mouse Serum)
1 mg/L: MIC ([3]; GC2243, read-out: MINIMAL INHIBITORY CONCENTRATION MIC, Human Serum) | MIC ([3]; GC2243, read-out: MINIMAL INHIBITORY CONCENTRATION MIC, Water) | MIC ([6]; GC1073, read-out: MINIMAL INHIBITORY CONCENTRATION MIC, Mouse Serum) | MIC ([9]; GC1079, read-out: MINIMAL INHIBITORY CONCENTRATION MIC, Human Serum) | MIC ([12]; GC3226, read-out: MINIMAL INHIBITORY CONCENTRATION MIC, Mouse Serum) | MIC ([15]; GC6335, read-out: MINIMAL INHIBITORY CONCENTRATION MIC, Mouse Serum) | MIC ([16]; GC2265, read-out: MINIMAL INHIBITORY CONCENTRATION MIC, Mouse Serum) | MIC ([17]; GC2236, read-out: MINIMAL INHIBITORY CONCENTRATION MIC, Mouse Serum)
0.25 mg/L: MIC ([3]; GC2243, read-out: MINIMAL INHIBITORY CONCENTRATION MIC, Mouse Serum) | MIC ([7]; GC4563, read-out: MINIMAL INHIBITORY CONCENTRATION MIC, Human Serum) | MIC ([7]; GC4563, read-out: MINIMAL INHIBITORY CONCENTRATION MIC, Water)
